Measured values reported in ChEMBL document CHEMBL4011651, “Discovery of the Irreversible Covalent FGFR Inhibitor 8-(3-(4-Acryloylpiperazin-1-yl)propyl)-6-(2,6-dichloro-3,5-dimethoxyphenyl)-2-(methylamino)pyrido[2,3-d]pyrimidin-7(8H)-one (PRN1371) for the Treatment of Solid Tumors” (J Med Chem, 2017).
One block for each molecule: values may come before it.

What was measured:
in vitro [1] = conditions: mouse, whole blood
Plasma = assay: Plasma concentration in rat at 10 mg/kg, po measured at 12 hrs post dose; assay type: ADME, organism-based; conditions: in vivo
[2] = Clearance in Sprague-Dawley rat at 2 mg/kg, iv; assay type: ADME, organism-based; conditions: in vivo
[3] = Volume of distribution at steady state in Sprague-Dawley rat at 2 mg/kg, iv; assay type: ADME, organism-based; conditions: in vivo, read-out: Vdss
[4] = Half life in Sprague-Dawley rat at 2 mg/kg, iv; assay type: ADME, organism-based; conditions: in vivo
[5] = Cmax in Sprague-Dawley rat at 2 mg/kg, iv; assay type: ADME, organism-based; design: dose 2 mg/kg, route intravenous; conditions: in vivo
[6] = Half life in Sprague-Dawley rat at 20 mg/kg, po; assay type: ADME, organism-based; conditions: in vivo
[7] = Cmax in Sprague-Dawley rat at 20 mg/kg, po; assay type: ADME, organism-based; design: dose 20 mg/kg, route oral; conditions: in vivo
[8] = AUC in Sprague-Dawley rat at 20 mg/kg, po; assay type: ADME, organism-based; conditions: in vivo
[9] = Clearance in Beagle dog at 2 mg/kg, iv; assay type: ADME, organism-based, Canis lupus familiaris; conditions: in vivo
[10] = Volume of distribution at steady state in Beagle dog at 2 mg/kg, iv; assay type: ADME, organism-based, Canis lupus familiaris; conditions: in vivo, read-out: Vdss
[11] = Cmax in Beagle dog at 2 mg/kg, iv; assay type: ADME, organism-based, Canis lupus familiaris; design: dose 2 mg/kg, route intravenous; conditions: in vivo
[12] = AUC in Beagle dog at 2 mg/kg, iv; assay type: ADME, organism-based, Canis lupus familiaris; conditions: in vivo
[13] = Cmax in Beagle dog at 10 mg/kg, po; assay type: ADME, organism-based, Canis lupus familiaris; design: dose 10 mg/kg, route oral; conditions: in vivo
[14] = AUC in Beagle dog at 10 mg/kg, po; assay type: ADME, organism-based, Canis lupus familiaris; conditions: in vivo
[15] = Oral bioavailability in Beagle dog at 10 mg/kg; assay type: ADME, organism-based, Canis lupus familiaris; conditions: in vivo
[16] = Clearance in cynomolgus monkey at 1.23 mg/kg, iv; assay type: ADME, organism-based, Macaca fascicularis; conditions: in vivo
[17] = Volume of distribution at steady state in cynomolgus monkey at 1.23 mg/kg, iv; assay type: ADME, organism-based, Macaca fascicularis; conditions: in vivo, read-out: Vdss
[18] = Half life in cynomolgus monkey at 1.23 mg/kg, iv; assay type: ADME, organism-based, Macaca fascicularis; conditions: in vivo
[19] = Cmax in cynomolgus monkey at 1.23 mg/kg, iv; assay type: ADME, organism-based, Macaca fascicularis; design: dose 1.23 mg/kg, route intravenous; conditions: in vivo
[20] = AUC in cynomolgus monkey at 1.23 mg/kg, iv; assay type: ADME, organism-based, Macaca fascicularis; conditions: in vivo
[21] = Half life in cynomolgus monkey at 10 mg/kg, po; assay type: ADME, organism-based, Macaca fascicularis; conditions: in vivo
[22] = Cmax in cynomolgus monkey at 10 mg/kg, po; assay type: ADME, organism-based, Macaca fascicularis; design: dose 10 mg/kg, route oral; conditions: in vivo
[23] = AUC in cynomolgus monkey at 10 mg/kg, po; assay type: ADME, organism-based, Macaca fascicularis; conditions: in vivo
[24] = Oral bioavailability in cynomolgus monkey at 10 mg/kg; assay type: ADME, organism-based, Macaca fascicularis; conditions: in vivo
[25] = Plasma concentration in rat at 10 mg/kg, po measured at 1 hr post dose; assay type: ADME, organism-based
in vivo = conditions: Sprague-Dawley, rat, iv, 2 mg/kg
in vitro [26] = conditions: human, plasma
in vitro [27] = conditions: human, whole blood

Structure (SMILES): C=CC(=O)Nc1ccc(CCn2c(=O)c(-c3cc(OC)cc(OC)c3Cl)cc3cnc(NC)nc32)cn1
- half-life (in vitro [1]): 51 min

- Drug uptake (Plasma): Not Active
- clearance [2]: 9.6 L/h/kg
- Vd [3]: 7.2 L/kg
- half-life [4]: 45.8 min
- Cmax [5]: 0.596 µg/mL
- half-life [6]: 226 min
- Cmax [7]: 1.79 µg/mL
- AUC [8]: 4.35 µg·h/mL
- clearance [9]: 7.02 L/h/kg
- Vd [10]: 2.9 L/kg
- Cmax [11]: 1.09 µg/mL
- AUC [12]: 0.284 µg·h/mL
- Cmax [13]: 1.1 µg/mL
- AUC [14]: 1.34 µg·h/mL
- bioavailability [15]: 94%
- clearance [16]: 2.57 L/h/kg
- Vd [17]: 1.14 L/kg
- half-life [18]: 20.9 min
- Cmax [19]: 0.999 µg/mL
- AUC [20]: 0.472 µg·h/mL
- half-life [21]: 29.2 min
- Cmax [22]: 0.0958 µg/mL
- AUC [23]: 0.0844 µg·h/mL
- bioavailability [24]: 2.3%
- concentration at 1 h [25]: 0.538 µg/mL
- AUC (in vivo): 0.208 µg·h/mL
- remaining at 2 h (in vitro [26]): 70%
- remaining at 2 h (in vitro [27]): 73%
Structure (SMILES): C=CC(=O)N1CCN(CCCn2c(=O)c(-c3c(Cl)c(OC)cc(OC)c3Cl)cc3cnc(NC)nc32)CC1 [PRN-1371]
